# Source: patent US10604476B2, “Fluorinated amide derivatives and their uses as therapeutic agents” (Trillium Therapeutics Inc., priority 2015, dated 2020)
# Columns and labels:
# [1] = test system: spontaneous recurrent hippocampal paroxysmal discharges (HPD); assay: Mesial temporal lobe epilepsy (mTLE) mouse model; format: in vivo; settings: 125 mg/kg; mice lesioned with intrahippocampal kainic acid
# Source text: The MTLE mouse model recapitulates many of the characteristics observed in human patients with temporal lobe epilepsy (TLE). The MTLE mouse is characterized by an initial neurotoxic event, a unilateral intrahippocampal injection of kainic acid (KA) into the dorsal hippocampus, which induces non-convulsive SE lasting several hours. This initial event is followed by a latent phase. Two to three weeks after KA injection, spontaneous recurrent hippocampal paroxysmal discharges (HPD) are only recorded in the epileptic hippocampus and remain stable and stereotyped for the whole life of the animal. These HPDs occur spontaneously about 30-60 times per hour when the animals are in a state of quiet wakefulness, generally last 15-20 sec and are associated with behavioral arrest and/or mild motor automatisms. […] Data are analyzed for the period of 10 minutes before and 10 minutes after peak time of effect of the investigational compound, as determined from the 6 Hz 44 mA seizure test. […] Data are presented as the raw number of HPDs during the analyzed 20 min period (10 minutes before and 10 minutes after peak time of effect of compound) for each MTLE mouse, group mean number of HPDs, and effect on suppression as represented by percent of baseline HPD values.
# [2] = test system: mEC-HC slice from KA-treated rats; assay: Spontaneously bursting hippocampal slice in vitro model; format: cell-based, rat; settings: 100 μM, FIG. 2
# Source text: An in vitro screen uses the medial entorhinal cortex-hippocampal (mEC-HC) slice obtained from kainic acid (KA)-treated animals to identify compounds that may be effective in pharmacoresistant epilepsy. Systemic KA treatment in rats is an accepted model of temporal lobe epilepsy (TLE), where an initial insult results in status epilepticus and is followed by a sustained latent period that subsequently gives way to the development of spontaneous seizures. […] Moreover, the mEC-HC slices obtained from KA-treated rats are hyperexcitable in normal artificial cerebrospinal fluid (ACSF) solution as early as one week following KA-induced SE. Thus, this test screens investigational compounds for any potential efficacy against pharmacoresistant TLE. […]
# Kainic acid administration/low dose: Animals were treated with Kainic Acid (Tocris, 0222) following a modified protocol described previously (Hellier et al 1998). Seizure activity is scored throughout KA administration using the Racine scale (Racine, 1972). […] Once stage 4-5 seizures are observed, injections cease and the number and stage of seizures observed are recorded on seizure score sheets. The animals are observed and seizures recorded for a minimum of 3.5 h. […]
# cold allodynia = assay: Spinal nerve injury (SNI) model, acetone test; format: in vivo, rat
# Source text: The SNI model of neuropathic pain was developed in rats using the procedure described by Decostered and Woolf, Pain 2000, 87: 149-158. Under isoflurane anesthesia, the skin on the lateral surface of the thigh was incised and a section was made directly through the biceps femoris muscle exposing the sciatic nerve and its three terminal branches: the sural, common peroneal and tibial nerves. The common peroneal and the tibial nerves were tight-ligated with 6-0 suture and sectioned distal to the ligation, removing 2-4 mm of the distal nerve stump. Extreme care was taken to avoid any contact with or stretching of the intact sural nerve. Following surgery, hemostasis was confirmed and the muscles were sutured in layers using 4-0 suture and the skin was closed with 4-0 suture and metal clips. Cold allodynia was assessed by using the acetone test. In this test, 25 μl of acetone is sprayed on to the plantar surface of the hind paw. Evaporation of acetone causes cooling of the skin. The cold stimulus sets up nociceptive responses from the injured paw as evidenced by paw lifting, paw licking and grooming. The duration of the nociceptive responses is noted.
smiles,measurement,setting,value
"C[C@@H](Oc1cc(Cl)cc(C(F)(F)F)c1)C(N)=O [I(D), (2R)-2-[3-chloro-5-(trifluoromethyl)-phenoxy]propanamide]",effect against spontaneous recurrent hippocampal paroxysmal discharges (HPD),[1],effective
same,network hyperexcitability (spontaneous burst activity and duration),[2],effectively suppressed
"NC(=O)COc1cc(C(F)(F)F)cc(C(F)(F)F)c1 [I(F), 2-[3,5 bis(trifluoromethyl)-phenoxy]acetamide;]",cold allodynia in the neuropathic rats,cold allodynia,significantly reduced
